The assay addresses T1, Human SGLT2 (hSGLT2) (Homo sapiens, UniProt P31639).
T1 construct: expressed in transfected cells
T1 sequence (P31639 1-672): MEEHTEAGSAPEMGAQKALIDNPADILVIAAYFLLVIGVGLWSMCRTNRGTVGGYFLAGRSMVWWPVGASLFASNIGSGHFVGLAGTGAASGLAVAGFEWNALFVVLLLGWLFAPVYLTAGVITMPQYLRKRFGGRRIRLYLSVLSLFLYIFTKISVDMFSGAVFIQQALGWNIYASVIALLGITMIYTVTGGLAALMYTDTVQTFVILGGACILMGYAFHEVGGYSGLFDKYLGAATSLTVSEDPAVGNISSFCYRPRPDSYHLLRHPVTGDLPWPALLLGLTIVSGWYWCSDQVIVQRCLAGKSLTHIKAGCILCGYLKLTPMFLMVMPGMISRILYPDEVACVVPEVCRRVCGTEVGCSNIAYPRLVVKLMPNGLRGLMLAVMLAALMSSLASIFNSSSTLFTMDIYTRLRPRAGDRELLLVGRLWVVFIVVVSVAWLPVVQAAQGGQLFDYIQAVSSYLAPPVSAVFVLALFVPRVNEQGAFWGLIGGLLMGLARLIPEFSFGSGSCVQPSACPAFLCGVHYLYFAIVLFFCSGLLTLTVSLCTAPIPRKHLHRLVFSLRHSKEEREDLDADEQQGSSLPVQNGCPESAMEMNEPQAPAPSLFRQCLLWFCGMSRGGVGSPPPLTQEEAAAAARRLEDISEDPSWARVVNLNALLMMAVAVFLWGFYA
In words: Sodium-dependent glucose transport (14C-AMG uptake) assay in CHO cells stably expressing hSGLT2. Type of assay: cell-based. The settings on record: CHO cells expressing hSGLT2, 14C-AMG uptake, 37° C. for 2 h; single determinations; read-out: hSGLT2 Inhibitory Activity IC50. Summed up: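 CHO cells stably expressing human SGLT2, preincubated 10 min at 37 °C in sodium-free choline buffer, then 2 h at 37 °C in Na+ buffer with 1 mM AMG plus 8 μM 14C-AMG and inhibitor. Washed cells counted by scintillation; IC50 by nonlinear regression.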
The IC50 is the point on the concentration scale where inhibition reaches its midpoint. In the case of `CCOc1cc(Cl)c(Cc2ncc(-c3ccoc3)s2)cc1[C@@H]1O[C@H](CO)[C@@H](O)[C@H](O)[C@H]1O` [Example 78, (2S,3R,4R,5S,6R)-2-(4-Chloro-2-ethoxy-5-((5-(furan-3-yl)thiazol-2-yl)methyl)phenyl)-6-(hydroxymethyl)-tetrahydro-2H-pyran-3,4,5-triol], the IC50 worked out at 4.35 nM.
As to `OC[C@H]1O[C@@H](c2ccc(F)c(Cc3ncc(-c4cccs4)s3)c2)[C@H](O)[C@@H](O)[C@@H]1O` [Example 42, (2S,3R,4R,5S,6R)-2-(4-Fluoro-3-((5-(thiophen-2-yl)thiazol-2-yl)methyl)phenyl)-6-(hydroxymethyl)tetrahydro-2H-pyran-3,4,5-triol], the IC50 was found to be 25.4 nM.
Regarding `CCCCCCc1cnc(Cc2cc([C@@H]3O[C@H](CO)[C@@H](O)[C@H](O)[C@H]3O)ccc2Cl)s1` [Example 15, (2S,3R,4R,5S,6R)-2-(4-Chloro-3-((5-hexylthiazol-2-yl)methyl)phenyl)-6-(hydroxymethyl)-tetrahydro-2H-pyran-3,4,5-triol], the IC50 is 5 nM.
With `Cc1cnc(Cc2cc([C@@H]3O[C@H](CO)[C@@H](O)[C@H](O)[C@H]3O)c(Cl)cc2Cl)s1` [Example 63, (2S,3R,4R,5S,6R)-2-(2,4-Dichloro-5-((5-methylthiazol-2-yl)methyl)phenyl)-6-(hydroxymethyl)tetrahydro-2H-pyran-3,4,5-triol], the IC50 was 49.1 nM.
On to `Cc1ccc([C@@H]2O[C@H](CO)[C@@H](O)[C@H](O)[C@H]2O)cc1Cc1ncc(-c2ccc(F)cc2)s1` [Example 37, (2S,3R,4R,5S,6R)-2-(3-((5-(4-Fluorophenyl)thiazol-2-yl)methyl)-4-methylphenyl)-6-(hydroxymethyl)tetrahydro-2H-pyran-3,4,5-triol], for which the IC50 came to 9.8 nM.
Consider `COc1c(Cc2ncc(C)s2)cc([C@@H]2O[C@H](CO)[C@@H](O)[C@H](O)[C@H]2O)c2ccccc12` [Example 98, (2R,3S,4R,5R,6S)-2-(Hydroxymethyl)-6-(4-methoxy-3-((5-methylthiazol-2-yl)methyl)naphthalen-1-yl)-tetrahydro-2H-pyran-3,4,5-triol], for which the IC50 worked out at 29.9 nM.
With `CC(C)(C)OC(=O)OC[C@H]1O[C@@H](c2ccc(Cl)c(Cc3ncc(-c4ccco4)s3)c2)[C@H](O)[C@@H](O)[C@@H]1O` [Example 162, tert-Butyl ((2R,3S,4R,5R,6S)-6-(4-chloro-3-((5-(furan-2-yl)thiazol-2-yl)methyl)phenyl)-3,4,5-trihydroxytetrahydro-2H-pyran-2-yl)methyl carbonate], the IC50 was 79.9 nM.
Under `N#Cc1ccc([C@@H]2O[C@H](CO)[C@@H](O)[C@H](O)[C@H]2O)cc1Cc1ncc(-c2ccco2)s1` [Example 108, 2-((5-(Furan-2-yl)thiazol-2-yl)methyl)-4-((2S,3R,4R,5S,6R)-3,4,5-trihydroxy-6-(hydroxymethyl)-tetrahydro-2H-pyran-2-yl)benzonitrile] stands 36.7 nM; under `OC[C@H]1O[C@@H](n2cc(Cc3ncc(-c4cccs4)s3)c3ccccc32)[C@H](O)[C@@H](O)[C@@H]1O` [Example 131, (2R,3S,4S,5R,6R)-2-(Hydroxymethyl)-6-(3-((5-(thiophen-2-yl)thiazol-2-yl)methyl)-1H-indol-1-yl)tetrahydro-2H-pyran-3,4,5-triol], 13.8 nM.
The result for `CCOc1cc(Cl)c(Cc2ncc(-c3ccc(F)cc3)s2)cc1[C@@H]1O[C@H](CO)[C@@H](O)[C@H](O)[C@H]1O` [Example 82, (2S,3R,4R,5S,6R)-2-(4-Chloro-2-ethoxy-5-((5-(4-fluorophenyl)thiazol-2-yl)methyl)phenyl)-6-(hydroxymethyl)tetrahydro-2H-pyran-3,4,5-triol] reads 7.55 nM; that for `C=CCOc1cc(Cl)c(Cc2ncc(-c3ccccc3)s2)cc1[C@@H]1O[C@H](CO)[C@@H](O)[C@H](O)[C@H]1O` [Example 87, (2S,3R,4R,5S,6R)-2-(2-(Allyloxy)-4-chloro-5-((5-phenylthiazol-2-yl)methyl)phenyl)-6-(hydroxymethyl)tetrahydro-2H-pyran-3,4,5-triol], 3.38 nM.
Take `Cc1ccc([C@@H]2O[C@H](CO)[C@@H](O)[C@H](O)[C@H]2O)cc1Cc1ncc(-c2cccs2)s1` [Example 32, (2R,3S,4R,5R,6S)-2-(Hydroxymethyl)-6-(4-methyl-3-((5-(thiophen-2-yl)thiazol-2-yl)methyl)phenyl)tetrahydro-2H-pyran-3,4,5-triol]: the IC50 stood at 3.8 nM.
Turning to `CSc1ncc(Cc2cc([C@@H]3O[C@H](CO)[C@@H](O)[C@H](O)[C@H]3O)ccc2Cl)s1` [Example 197, (2S,3R,4R,5S,6R)-2-(4-Chloro-3-((2-(methylthio)thiazol-5-yl)methyl)phenyl)-6-(hydroxymethyl)tetrahydro-2H-pyran-3,4,5-triol], the IC50 stood at 9.48 nM.
Under `OC[C@H]1O[C@@H](c2ccc(Cl)c(Cc3cnc(-c4ccsc4)s3)c2)[C@H](O)[C@@H](O)[C@@H]1O` [Example 190, (2S,3R,4R,5S,6R)-2-(4-Chloro-3-((2-(thiophen-3-yl)thiazol-5-yl)methyl)phenyl)-6-(hydroxymethyl)tetrahydro-2H-pyran-3,4,5-triol] stands 0.901 nM.
As for `OC[C@H]1O[C@@H](c2ccc(Cl)c(Cc3cnc(-c4ccoc4)s3)c2)[C@H](O)[C@@H](O)[C@@H]1O` [Example 186, (2S,3R,4R,5S,6R)-2-(4-Chloro-3-((2-(furan-3-yl)thiazol-5-yl)methyl)phenyl)-6-(hydroxymethyl)tetrahydro-2H-pyran-3,4,5-triol], the IC50 was determined as 4.47 nM.
In the case of `CCCCc1cnc(Cc2cc([C@@H]3O[C@H](CO)[C@@H](O)[C@H](O)[C@H]3O)c(Cl)cc2Cl)s1` [Example 66, (2S,3R,4R,5S,6R)-2-(5-((5-Butylthiazol-2-yl)methyl)-2,4-dichlorophenyl)-6-(hydroxymethyl)tetrahydro-2H-pyran-3,4,5-triol], the IC50 stood at 60.5 nM.
In the case of “(2S,3R,4R,5S,6R)-2-(4-Chloro-2-ethoxy-5-((5-(furan-3-yl)thiazol-2-yl)methyl)phenyl)-6-(hydroxymethyl)tetrahydro-2H-pyran-3,4,5-triol [Example 31]”, the IC50 is 3.66 nM.
Regarding `OC[C@H]1O[C@@H](c2ccc(Cl)c(Cc3ncc(-c4ccsc4)s3)c2)[C@H](O)[C@@H](O)[C@@H]1O` [Example 1, (2S,3R,4R,5S,6R)-2-(4-Chloro-3-((5-(thiophen-3-yl)thiazol-2-yl)methyl)phenyl)-6-(hydroxymethyl)-tetrahydro-2H-pyran-3,4,5-triol], the IC50 turned out to be 2 nM.
Take `Cc1ccc([C@@H]2O[C@H](CO)[C@@H](O)[C@H](O)[C@H]2O)cc1Cc1ncc(-c2ccsc2)s1` [Example 33, (2R,3S,4R,5R,6S)-2-(Hydroxymethyl)-6-(4-methyl-3-((5-(thiophen-3-yl)thiazol-2-yl)methyl)phenyl)tetrahydro-2H-pyran-3,4,5-triol]: the IC50 was determined as 1.28 nM.
Regarding `OC[C@H]1O[C@@H](c2ccc(Cl)c(Cc3cnc(-c4ccc(F)cc4)s3)c2)[C@H](O)[C@@H](O)[C@@H]1O` [Example 194, (2S,3R,4R,5S,6R)-2-(4-Chloro-3-((2-(4-fluorophenyl)thiazol-5-yl)methyl)phenyl)-6-(hydroxymethyl)tetrahydro-2H-pyran-3,4,5-triol], the IC50 was found to be 6.39 nM.

The values are drawn from patent US8586550B2, “Thiazole derivatives as SGLT2 inhibitors and pharmaceutical composition comprising same” (Green Cross Corporation, priority 2010, dated 2013).
